Reference: patent US20200190592A1, “PME-1 AS A BIOMARKER TO PREDICT AND DIAGNOSE AN INCREASED RISK OF ENDOMETRIAL CANCER AND GENE SILENCING OF PME-1 TO INHIBIT EPITHELIAL TO MESENCHYMAL TRANSITION” (Medical Diagnostic Laboratories, L.L.C., priority 2018, published 2020)
“Also recorded” adds a separate entry of the source.

Assays:
Format in all cases: cell-based, human
WNT3 and WNT3A = test: qRT-PCR of WNT3 and WNT3A expression in RL95-2 cells; conditions: RL95-2, normalized to 18S
Method: (§1) Using RL95-2 endometrial cancer cells, we overexpressed PME-1 (FIG. 21A) or depleted PME-1 with shRNA (FIG. 21B) and confirmed that PME-1 was appropriately expressed.
(§2) Total RNA was extracted with Qiagen RNAEasy kit from RL95-2 cells. cDNA was synthesized using 500 ng-1 μg of RNA and SuperScript VILO c-DNA mix (Life Technologies). Taqman probes and PCR-mix were purchased from Life Technologies. All samples were run in triplicates. Results are representative of three independent experiments in which genes of interest were normalized to the house-keeping gene, 18S or GAPDH, where fold-change was calculated using the ddCt method.

phospho-Akt = test: Western analysis of Akt phosphorylation in RL95-2 cells; conditions: PME-1 knocked down
Method: We observed a similar trend for the Akt signaling pathway. There was an increase in phosphorylation of Akt on threonine 308 (T308) when PME-1 was over-expressed compared to control. There was a decrease in phosphorylation of Akt when PME-1 was knocked down (FIG. 18B). PME-1 over-expression specifically increases the phosphorylation of Akt on T308, but not serine 473 (S473). Importantly, when cells were incubated with upstream inhibitors of Akt phosphorylation (LY294002), there was a decrease in the phospho-forms (FIGS. 18A and 18B), as expected.
15 μg of protein was used for western analysis. PME-1 antibody (Santa Cruz) and COXIV (Cell Signaling Technologies) were used for detection of proteins and the blots were developed using chemiluminescence (Pierce ECL Western Blotting Substrate—Thermo Scientific) on the GE ImageQuant LAS 4000. For analysis of Akt, ERK, and β-catenin signaling in tissue culture, western analyses were completed as follows. RL95-2 cells stably infected with lentivirus expressing constructs were selected with puromycin (Invivogen). The cells were incubated with either 50 μM Akt inhibitor (LY 294002, Cell Signaling Technologies) or 40 μM ERK inhibitor (V0126, Cell Signaling Technologies) for 1-2 hours at 37° C. 1.5× Laemelli buffer (0.5 M Tris pH6.8, […], 10% sodium dodecyl sulfate, 100 mM EDTA) was used to prepare cell lysates. […]

PME-1 = test: Western blot of PME-1 protein in RL95-2 cells; conditions: GAPDH loading control, listed as shRNA #2
Description: We prepared RL95-2 cell lines expressing empty vector (control), over-expressing PME-1 (+PME-1), or expressing shRNA against PPME1, the gene that codes for PME-1 protein (−PME-1). Using these cells, we confirmed the appropriate level of PME-1 via real-time RT-PCR (data not shown) and Western blot analysis (FIG. 8). GAPDH was used as a loading control.
We also prepared two different shRNAs targeted against PME-1.
Lentivirus was produced in HEK293T cell lines with pLKO shRN vectors (Thermo Scientific, cat. no. RHS4533; Waltham, Mass.) and pCDH-CuO-GFP-Puro vectors (System Biosciences, Inc., cat. no. QM513B-1; Mountain View, Calif.) with pPACKH1 packaging plasmid (System Biosciences, Inc., cat, no. LV050A-1). shRNA sequences are in the Table 2. Lentivirus was collected and concentrated with Peg-IT concentrating solution (System Biosciences, Inc.). 5×10^6 ifu/ml lentivirus was added to cell cultures with growth media and 8 μg/ml PolyBrene (Sigma Aldrich). Media was changed to full growth media after 24 hrs and to selection media containing antibiotic after 48 hrs (5 μg/ml puromycin) (Invivogen) for 10 days.
15 μg of protein was used for western analysis. […]

RL95-2 cells [1] = test: BrDU incorporation assay; conditions: compared to scrambled shRNA control set to 100%
Method: To confirm our foci formation data that altering PME-1 levels in endometrial cancer cells affect their rate of cell proliferation, we conducted a BrDU incorporation assay. BrDU is incorporated into newly synthesized DNA and can be detected with antibodies; thus, increased BrDU incorporation correlates with an increased level of proliferation.
The BrDU Incorporation assay was completed with RL95-2 cell lines in media supplemented with 2.5 μg/ml puromycin. Cells were plated at 0.5*10^4 cells per well into a 96 well dish with 0% FBS and allowed to settle for 24 hours. The assay was completed as per kit instructions (Roche, Cell Proliferation ELISA, BrdU colorimetric cat. #11647229001). Briefly, 10 uM BrdU was added to the cells, 24 hours later cells were fixed and denatured with FixDenat from the kit and allowed to incubate with anti-BrdU antibody for up to two hours. Following the incubation and addition of the kit substrate, absorbances were read using FluoStar Galaxy.

RL95-2 cells [2] = test: Colony forming / invasive growth assay in Matrigel; conditions: RL95-2 in Matrigel
Method: To determine if PME-1 contributes to the more invasive and metastatic phenotypes, we performed a colony forming assay in matrigel.
The 3D On Top Matrigel Assay was completed in 24 well dishes as described previously {Lee, 2007 #1577}. Briefly, the bottoms of 24 well dishes were coated with 50 μl BD Matrigel Basement Matrix Phenol Red Free (BD Biosciences cat. #356237) and allowed to solidify at 37° C. 10^5 cells were suspended in 250 μl chilled medium containing either 10 ng/ml of TGF-b or vehicle and allowed to settle at 37° C. for 30 minutes. Chilled medium containing 10% of Matrigel was added by pipetting gently down the sidewall of the well and incubated at 37° C. for ten days changing top medium every second day. Colony counts were performed on the tenth day, averages were taken from three fields of view using a 10× objective. Experiment was repeated three times.

SFRP1 = test: qRT-PCR of SFRP1 expression in RL95-2 cells; conditions: RL95-2, normalized to 18S
Method: as §1, §2

shPPME1 no. 2: shRNA targeting PPME1, SEQ ID NO: 2: GCAGCGATTATTAGTAGAGTT, bp 289-309; used for all subsequent experiments (guide GCAGCGATTATTAGTAGAGTT; listed as Homo sapiens)
WNT3 and WNT3A expression (WNT3 and WNT3A): significantly decreased | phosphorylation of Akt (phospho-Akt): decrease | PME-1 levels via Western blot analysis (PME-1): significantly decreased; also recorded: best depletion | decrease in BrDU incorporation (RL95-2 cells [1]): 40% | decrease in colony formation (RL95-2 cells [2]; 10 days, vs control cells): 50% | colonies number and size (RL95-2 cells [2]; −TGF-β, compared to control cells): fewer and smaller colonies | SFRP1 expression (SFRP1): significantly increased | SFRP1 expression (SFRP1; listed as shRNA (SEQ ID NO: 2)): significant increase
